Data taken from PubChem BioAssay (NCI).
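Step 1: Grow cells in 96-well plates. Step 2: Expose to compound for 48 hours at 5 concentrations. Step 3: Interpolate endpoints linearly; if unreached, use highest concentration. TGI marks complete inhibition of growth.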

How the values were obtained:
Assay in all cases: NCI anticancer screen, dose series, 48 h
[1] = test system: 786-0 renal
[2] = test system: A498 renal
[3] = test system: A549 NSCLC
[4] = test system: ACHN renal
[5] = test system: BT-549 breast
[6] = test system: CAKI-1 renal
[7] = test system: CCRF-CEM leukemia
[8] = test system: COLO 205 colon
[9] = test system: DU-145 prostate
[10] = test system: EKVX NSCLC
[11] = test system: HCC-2998 colon
[12] = test system: HCT-116 colon
[13] = test system: HCT-15 colon
[14] = test system: HL-60(TB) leukemia
[15] = test system: HOP-92 NSCLC
[16] = test system: HS 578T breast
[17] = test system: HT29 colon
[18] = test system: IGROV1 ovarian
[19] = test system: K-562 leukemia
[20] = test system: KM12 colon
[21] = test system: LOX IMVI melanoma
[22] = test system: M14 melanoma
[23] = test system: MALME-3M melanoma
[24] = test system: MCF7 breast
[25] = test system: MDA-MB-231 breast
[26] = test system: MDA-MB-435
[27] = test system: MDA-N
[28] = test system: MOLT-4 leukemia
[29] = test system: NCI-H226 lung
[30] = test system: NCI-H23 lung
[31] = test system: NCI-H460 lung
[32] = test system: NCI-H522 lung
[33] = test system: NCI/ADR-RES ovarian
[34] = test system: OVCAR-3 ovarian
[35] = test system: OVCAR-4 ovarian
[36] = test system: OVCAR-5 ovarian
[37] = test system: OVCAR-8 ovarian
[38] = test system: PC-3 prostate
[39] = test system: RPMI-8226 leukemia
[40] = test system: SF-268 CNS
[41] = test system: SF-295 CNS
[42] = test system: SF-539 CNS
[43] = test system: SK-MEL-2 melanoma
[44] = test system: SK-MEL-28 melanoma
[45] = test system: SK-MEL-5 melanoma
[46] = test system: SK-OV-3 ovarian
[47] = test system: SN12C renal
[48] = test system: SNB-19 CNS
[49] = test system: SNB-75 CNS
[50] = test system: SW-620 colon
[51] = test system: T-47D breast
[52] = test system: TK-10 renal
[53] = test system: U251 CNS
[54] = test system: UACC-257 melanoma
[55] = test system: UACC-62 melanoma
[56] = test system: UO-31 renal
[57] = test system: HOP-62 NSCLC
[58] = test system: SR leukemia

With `Cc1occc1C(=S)Nc1ccc(Cl)c(C(=O)OCC(C)C)c1` the TGI [1] was 33.5 µM, the TGI [2] was 30.4 µM and the TGI [3] was 42.4 µM. It also gave a TGI [4] of 43.2 µM, a TGI [5] of 33.2 µM and a TGI [6] of 37.8 µM. For the same compound, the TGI [7] was > 100 µM, the TGI [8] was 39.9 µM and the TGI [9] was 39.8 µM. It also gave a TGI [10] of 31 µM, a TGI [11] of 35.3 µM and a TGI [12] of 28.8 µM. The TGI [13] was 36.1 µM, the TGI [14] was 79.5 µM and the TGI [15] was 34.1 µM. For the same compound, the TGI [16] was 62.6 µM, the TGI [17] was 26.3 µM and the TGI [18] was 34.5 µM. The TGI [19] was 55.2 µM, the TGI [20] was 27.5 µM and the TGI [21] was 28.6 µM. For the same compound, the TGI [22] was 65 µM, the TGI [23] was 36.2 µM and the TGI [24] was 33.3 µM. For the same compound, the TGI [25] was 31.4 µM, the TGI [26] was 32.8 µM and the TGI [27] was 47.8 µM. The TGI [28] was 44.8 µM, the TGI [29] was 30.4 µM and the TGI [30] was 45.3 µM. For the same compound, the TGI [31] was 44.9 µM, the TGI [32] was 29.2 µM and the TGI [33] was 28.6 µM. It also gave a TGI [34] of 46.5 µM, a TGI [35] of 39.2 µM and a TGI [36] of 88.1 µM. The TGI [37] was 30.7 µM, the TGI [38] was 38.7 µM and the TGI [39] was 75 µM. For the same compound, the TGI [40] was 42.5 µM, the TGI [41] was 33.2 µM and the TGI [42] was 43.6 µM. It also gave a TGI [43] of 40.2 µM, a TGI [44] of 32.3 µM and a TGI [45] of 29 µM. For the same compound, the TGI [46] was 42.4 µM, the TGI [47] was 36.3 µM and the TGI [48] was 31.2 µM. It also gave a TGI [49] of 29.4 µM, a TGI [50] of 45.8 µM and a TGI [51] of 34.3 µM. It also gave a TGI [52] of 33.5 µM, a TGI [53] of 35.9 µM and a TGI [54] of 40.2 µM. The TGI [55] was 26.5 µM and the TGI [56] was 33.2 µM.

With `Cc1n[nH]c(=O)n1Nc1ccccc1` the TGI [1] was > 100 µM, the TGI [3] was > 100 µM and the TGI [4] was > 100 µM. For the same compound, the TGI [5] was > 100 µM, the TGI [6] was > 100 µM and the TGI [7] was > 100 µM. The TGI [8] was > 100 µM, the TGI [9] was > 100 µM and the TGI [10] was > 100 µM. For the same compound, the TGI [11] was > 100 µM, the TGI [12] was > 100 µM and the TGI [13] was > 100 µM. The TGI [14] was > 100 µM, the TGI [57] was > 100 µM and the TGI [15] was > 100 µM. For the same compound, the TGI [16] was > 100 µM, the TGI [17] was > 100 µM and the TGI [18] was > 100 µM. For the same compound, the TGI [19] was > 100 µM, the TGI [20] was > 100 µM and the TGI [21] was > 100 µM. The TGI [22] was > 100 µM, the TGI [23] was > 100 µM and the TGI [24] was > 100 µM. For the same compound, the TGI [25] was > 100 µM, the TGI [26] was > 100 µM and the TGI [27] was > 100 µM. The TGI [28] was > 100 µM, the TGI [29] was > 100 µM and the TGI [30] was > 100 µM. For the same compound, the TGI [31] was > 100 µM, the TGI [32] was > 100 µM and the TGI [33] was > 100 µM. The TGI [34] was > 100 µM, the TGI [35] was > 100 µM and the TGI [36] was > 100 µM. For the same compound, the TGI [37] was > 100 µM, the TGI [38] was > 100 µM and the TGI [39] was > 100 µM. For the same compound, the TGI [40] was > 100 µM, the TGI [41] was > 100 µM and the TGI [42] was > 100 µM. The TGI [44] was > 100 µM, the TGI [45] was > 100 µM and the TGI [46] was > 100 µM. The TGI [47] was > 100 µM, the TGI [48] was > 100 µM and the TGI [49] was > 100 µM. The TGI [58] was > 100 µM, the TGI [50] was > 100 µM and the TGI [51] was > 100 µM. For the same compound, the TGI [53] was > 100 µM, the TGI [54] was > 100 µM and the TGI [55] was > 100 µM. For the same compound, the TGI [56] was > 100 µM.
